This passage reports Activity results from ChEMBL document CHEMBL1157231, “Antibacterial compounds from Glycyrrhiza uralensis” (2006).

This experiment deals with Streptococcus mutans. Nature of the experiment: Antibacterial activity against Streptococcus mutans ATCC 25175 after 16 to 20 hrs by NCCLS method. It is filed as functional.
With `CC(C)=CCc1c(O)c(CC=C(C)C)c2occ(-c3ccc(O)cc3)c(=O)c2c1O`, the Activity was found to be 2 µg/mL. `COc1cc(O)cc2c1-c1oc3c4c(ccc3c1CO2)OC(C)(C)C=C4` [GLYCYRRHIZOL B] gave an Activity of 32 µg/mL. For the compound `COc1c2c(cc3oc(=O)c4c5ccc(O)cc5oc4c13)OC(C)(C)CC2` [ISOGLYCYROL], the Activity stood at 500 µg/mL. Consider `COc1cc2oc(=O)c3c4ccc(O)cc4oc3c2c(OC)c1CC=C(C)C`, for which the Activity was determined as 500 µg/mL. `COc1c(CC=C(C)C)c(O)cc2c1-c1oc3cc(O)c(CC=C(C)C)cc3c1CO2` [GLYCYRRHIZOL A] showed an Activity of 1 µg/mL.

With `COc1cc2occ(-c3ccc(O)cc3)c(=O)c2c(O)c1CC=C(C)C` [GANCAONIN G], the Activity amounted to 125 µg/mL.
